According to patent publication US12594258B2, “Inhibitors of MHC-I Nef downmodulation for treating HIV” (priority 2019, dated 2026):

What was measured:
HIV Nef [1] = assay: Nef activity in HIV-infected CD4+ T cells treated with plasma from CMA-injected mice; format: cell-based; details: plasma 30 minutes after injection, diluted 1:20
Description: FIG. 8F is a summary graph of flow cytometric data from experiments as in FIG. 1. Blood plasma was isolated from mice 30 minutes after injection with CMA, and CMA concentration was determined by mass spectrometry. Primary CD4+ T cells infected with HIV as in FIG. 1 were treated with 5% plasma from control mice spiked with known concentrations of CMA (standard curve) or with plasma from the CMA-injected mice diluted 1:20. Nef activity in cells receiving plasma from treated mice was compared to the standard curve based on the concentration of CMA as determined by mass spectrometry.
Mouse in vivo Assays. To further examine the tolerability of CMA, preliminary studies were performed in two groups of mice injected with different doses of CMA every other day for 18 days (FIG. 8A). […] In a separate experiment, plasma harvested from treated mice inhibited Nef in our in vitro assay (FIG. 8F). Taken together, these promising preliminary studies provide evidence that CMA is both efficacious and tolerable in vivo.

primary CD4+ T cells = assay: MTT and flow cytometric viability assays in primary CD4+ T cells; format: cell-based, human
Description: CD4^+ T cells were plated at a density of 1×10^5 cells in 200 μL R10-50 in flat-bottom 96-well plates 4 days post-stimulation with PHA. Cells were exposed to titrations of plecomacrolides or solvent controls for 72 hours in culture, at which point viability was assessed relative to solvent by MTT assay in experimental duplicates. Equal volumes of cell culture medium containing CD4^+ T cells were pelleted in 96-well round-bottom plates and incubated in 4.5 mg/mL MTT (Fisher, M6494) in R10 with no Phenol Red at 37° C. until the purple formazan signal was clearly visible. The absorbance of cell pellets resuspended in DMSO was measured at 595 nm on a Molecular Devices Emax precision microplate reader and compared a standard curve of known viable cell numbers to ensure the experimental samples fell within the linear range of the assay.

HIV Nef [2] = system: HIV Nef
[3] = system: HIV-infected primary CD4+ T cells; assay: Flow cytometric CTL killing assay; format: cell-based, human
Source text: CTL clones were isolated by limiting dilution from HIV-1- infected individuals. […] The CTL clones were maintained in culture with periodic re-stimulation as previously described except for the following changes; CTL clones were stimulated with anti-CD3 clone 12F6 (NIH AIDS Reagent Program) and cultured with IL-2 (NIH AIDS Reagent Program, Hoffman-La Roche). Peripheral blood mononuclear feeder cells were isolated from leukopaks (New York Blood Center) and X-irradiated with […] in R10 medium. Irradiations were performed using a Kimtron IC 225(Kimtron Medical) at a dose rate of approximately 2 Gy/min in the University of Michigan Comprehensive Cancer Center Experimental Irradiation Core (Ann Arbor, Mich.). CTL clones 115B15 and 161JXA14 both recognize HIV gag amino acids 77-85; SLYNTVATL presented by MHC-I HLA-A2 (71).
CTL elimination assays were performed as previously described with the following modifications: 72 hours post-infection primary CD4^+ T cells were stained with CellTracker Green (Fisher, c7025) according to manufacturer's protocol and treated with 0.5 nM CMA or solvent control for 24 hours. 50,000 target cells were used per condition, and following the 4 hours of co-culture, the cells were stained with DAPI as a viability dye in addition to anti-PLAP and BB7.2 antibodies. […]

C/C=C/[C@H]1O[C@@](O)([C@@H](C)[C@H](O)[C@H](C)[C@H]2OC(=O)/C(OC)=C/C(C)=C/[C@@H](C)[C@@H](O)[C@@H](CC)[C@@H](O)[C@H](C)C/C(C)=C/C=C/[C@@H]2OC)C[C@@H](O[C@H]2C[C@@H](O)[C@H](OC(N)=O)[C@@H](C)O2)[C@@H]1C [CMA, concanamycin A]
Nef inhibition by plasma harvested from treated mice (HIV Nef [1]): inhibited Nef | viability (primary CD4+ T cells; 0.5 nM, 24-h incubation): 95% | difference between the 50% effective and toxic concentrations (EC50 and TC50) (primary CD4+ T cells; Nef activity 24 hours, viability 72 hours): 11 fold | restoration of CD4 to the cell surface of Nef-expressing cells (HIV Nef [2]; 2.5 nM and 0.5 nM): neither dose of CMA restored CD4 | restoration of cell-surface MHC-I in Nef-expressing cells (HIV Nef [2]; 2.5 nM and 0.5 nM): restored equally in both conditions | Nef-mediated degradation of HLA-A2 and CD4 (Western blot) (HIV Nef [2]; high dose (2.5 nM)): inhibited Nef-mediated degradation of both HLA-A2 and CD4 | degradation of CD4 (Western blot) (HIV Nef [2]; low dose (0.5 nM)): did not prevent degradation of CD4 | degradation of MHC-I in Nef-expressing cells (Western blot) (HIV Nef [2]; low dose (0.5 nM)): MHC-I was not degraded in Nef-expressing cells | CTL-mediated elimination of PLAP+ cells infected with Nef-competent virus ([3]; 0.5 nM, 24 hours): efficiently eliminated by CTLs | clearance of SL9 peptide-pulsed target cells by anti-HIV CTLs ([3]; in the presence of 0.5 nM): No change in the clearance
